From patent US20220324851A1, “AMINE-SUBSTITUTED HETEROCYCLIC COMPOUNDS AS EHMT2 INHIBITORS, SALTS THEREOF, AND METHODS OF SYNTHESIS THEREOF” (Epizyme, Inc., priority 2017, published 2022)
Structures can show the parent of a compound that is named as a salt.

How the values were obtained:
Format in all cases: physicochemical
[1] = DVS water uptake / hygroscopicity; settings: for hygroscopicity (in words): conclusion from DVS where run
[2] = XRPD before and after DVS (form change); settings: state of sample post DVS
[3] = stressing at 40° C./75% RH (form change)
[4] = appearance under ambient condition; settings: wet solid under ambient condition; not tested by TGA/DSC

Row | water uptake (DVS) ([1]; at 25° C./80% RH) [%] | hygroscopicity (in words) [1] | form change after DVS [2] | water uptake (DVS) ([1]; from 0% to 80% RH) | water uptake (DVS) ([1]; from 50% RH to 80% RH at 25° C.) | form change after stressing [3] | hygroscopicity (in words) [4] | Structure (SMILES)
1 | ~8 | hygroscopic | No change in XRPD pattern |  |  |  |  | CNc1cc(C)nc(Nc2cnc(OC)c(OC[C@@H]3CCN(C)C3)c2)n1 [Compound 1R Hydrochloride Salt Type A]
2 |  | slightly hygroscopic | No form change | around 1.0% |  |  |  | CNc1cc(C2CCOCC2)c2cc(OC)c(OCCCN3CCCC3)cc2n1 [Compound 2 Freebase Type A]
3 |  | hygroscopic | No form change | around 12.9% |  |  |  | CNc1cc(C)nc(Nc2ccc(OC)c(CNCCN3CCCC3)c2)n1 [Compound 3 Freebase Type A]
4 |  |  | deliquescence | around 45.3% |  |  |  | CNc1cc(C)nc(Nc2ccc(OC)c(CNCCN3CCCC3)c2)n1 [Compound 3 Glycolate Salt Type B]
5 |  |  | new hydrate form |  |  |  |  | CNc1cc(C)nc(Nc2ccc(OC)c(CNCCN3CCCC3)c2)n1 [Compound 3 Hydrochloride Salt Type A]
6 | 15.3 | hygroscopic | change of XRPD pattern was observed |  |  |  |  | CNc1cc(C)nc(Nc2ccc(OC)c(CNCCN3CCCC3)c2)n1 [Compound 3 Hydrochloride Salt Type B]
7 | 20.5 | highly hygroscopic | No significant form change |  |  |  |  | CNc1cc(C)nc(Nc2ccc(OC)c(CNCCN3CCCC3)c2)n1 [Compound 3 Sulfate Sate Type A]
8 |  | hygroscopic | No form change | around 8.7% |  |  |  | CNc1cc(C)nc(Nc2ccc(OC)c(OC[C@H](O)CN3CCCC3)c2)n1 [Compound 4R Freebase Type C]
9 |  | hygroscopic | change of XRPD pattern was observed |  | around 4% |  |  | CNc1cc(C)nc(Nc2ccc(OC)c(OC[C@H](O)CN3CCCC3)c2)n1 [Compound 4R Hydrochloride Salt Type A]
10 |  | very hygroscopic | No form change | around 17.4% |  |  |  | CNc1cc(C)nc(Nc2ccc(OC)c(OC[C@H](O)CN3CCCC3)c2)n1 [Compound 4R Hydrochloride Salt Type B]
11 |  | hygroscopic | No form change | around 9.6% |  |  |  | CNc1cc(C)nc(Nc2ccc(OC)c(OC[C@H](O)CN3CCCC3)c2)n1 [Compound 4R Succinate Salt Type A]
12 | 7.6 | hygroscopic | No significant form change |  |  |  |  | CNc1cc(C)nc(Nc2ccc(OC)c(OC[C@H](O)CN3CCC3)c2)n1 [Compound 5R Fumarate Salt Type A]
13 |  |  |  |  |  | No form change |  | CNc1cc(C)nc(Nc2ccc(OC)c(OC[C@H](O)CN3CCC3)c2)n1 [Compound 5R Gentisate Salt Type E]
14 | 2.6 | hygroscopic | No significant form change |  |  |  |  | CNc1cc(C)nc(Nc2ccc(OC)c(OC[C@H](O)CN3CCC3)c2)n1 [Compound 5R Hippurate Salt Type A]
15 |  |  |  |  |  |  | high hygroscopicity | CNCc1cnn(-c2cc(Nc3nc(C)cc(NC)n3)ccc2OC)c1 [Compound 6 Glycolate Salt Type A]
16 |  | very hygroscopic | Form change was observed | around 19.4% |  |  |  | CNCc1cnn(-c2cc(Nc3nc(C)cc(NC)n3)ccc2OC)c1 [Compound 6 Hydrochloride Salt Type A]
17 |  | hygroscopic | No form change | around 4.4% |  |  |  | CNCc1cnn(-c2cc(Nc3nc(C)cc(NC)n3)ccc2OC)c1 [Compound 6 freebase Type A]
18 |  | low hygroscopicity |  |  |  |  |  | CNCc1cnn(-c2c(OC)ccc(Nc3nc(C)cc(NC)n3)c2F)c1 [Compound 7 Fumarate Salt Type A]
19 |  |  |  | around 1.9% |  |  |  | CNCc1cnn(-c2c(OC)ccc(Nc3nc(C)cc(NC)n3)c2F)c1 [Compound 7 Fumarate Salt Type C]

Row | Structure (SMILES) | water uptake (DVS) ([1]; at 25° C./80% RH) [%] | hygroscopicity (in words) [1] | form change after DVS [2] | water uptake (DVS) ([1]; from 0% to 80% RH) | water uptake (DVS) ([1]; from 50% RH to 80% RH at 25° C.) | form change after stressing [3] | hygroscopicity (in words) [4]
20 | CNCc1cnn(-c2cc(Nc3nc(C)cc(NC)n3)ccc2OC)c1 [Compound 6 Adipate Salt Type B] |  | hygroscopic | form change from Compound 6 Adipate Salt Type B to Compound 6 Adipate Salt Type A | around 8.8% |  |  | 
